Patent publication US20200054643A1, “FUSED HETEROCYCLIC COMPOUNDS AS SELECTIVE BMP INHIBITORS” (Vanderbilt University, priority 2017, published 2020)

What was measured:
[1] = target: T1, ALK2/ACVR1 (Homo sapiens, UniProt Q04771); experiment: BMP Type 1 receptor assay, ALK2/ACVR1; format: biochemical
T1 sequence (Q04771 21-509): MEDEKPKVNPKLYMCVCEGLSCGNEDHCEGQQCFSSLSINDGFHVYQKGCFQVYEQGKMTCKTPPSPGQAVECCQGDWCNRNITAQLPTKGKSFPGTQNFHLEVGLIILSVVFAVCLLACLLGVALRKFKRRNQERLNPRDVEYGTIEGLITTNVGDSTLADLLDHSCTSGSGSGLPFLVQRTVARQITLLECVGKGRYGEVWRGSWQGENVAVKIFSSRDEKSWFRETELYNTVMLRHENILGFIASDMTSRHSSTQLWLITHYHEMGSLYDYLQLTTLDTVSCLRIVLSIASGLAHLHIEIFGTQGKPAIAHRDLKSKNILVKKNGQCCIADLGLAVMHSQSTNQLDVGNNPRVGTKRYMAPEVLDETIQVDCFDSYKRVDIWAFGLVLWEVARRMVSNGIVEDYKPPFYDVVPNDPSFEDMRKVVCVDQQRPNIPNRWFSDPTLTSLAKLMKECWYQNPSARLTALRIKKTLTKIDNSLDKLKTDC

[2] = target: ALK1/ACVR1 (Homo sapiens, UniProt P37023); experiment: BMP Type 1 receptor assay, ALK1/ACVR1; format: biochemical
ALK1/ACVR1, sequence (P37023 22-503): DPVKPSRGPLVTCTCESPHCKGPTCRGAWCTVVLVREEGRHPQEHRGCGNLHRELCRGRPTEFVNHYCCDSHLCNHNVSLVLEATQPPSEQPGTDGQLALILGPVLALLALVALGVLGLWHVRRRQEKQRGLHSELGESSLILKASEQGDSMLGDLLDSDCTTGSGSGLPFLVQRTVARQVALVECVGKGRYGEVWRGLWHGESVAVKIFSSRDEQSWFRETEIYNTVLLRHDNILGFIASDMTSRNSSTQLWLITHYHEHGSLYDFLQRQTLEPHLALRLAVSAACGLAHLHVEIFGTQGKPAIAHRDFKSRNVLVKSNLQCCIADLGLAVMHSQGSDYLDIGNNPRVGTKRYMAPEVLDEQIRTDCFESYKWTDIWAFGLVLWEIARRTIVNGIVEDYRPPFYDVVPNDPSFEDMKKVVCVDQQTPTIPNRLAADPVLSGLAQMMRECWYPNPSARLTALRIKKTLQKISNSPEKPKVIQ

[3] = target: ALK3/BMPRR1A (Homo sapiens, UniProt P36894); experiment: BMP Type 1 receptor assay, ALK3/BMPRR1A; format: biochemical
ALK3/BMPRR1A, sequence (P36894 24-532): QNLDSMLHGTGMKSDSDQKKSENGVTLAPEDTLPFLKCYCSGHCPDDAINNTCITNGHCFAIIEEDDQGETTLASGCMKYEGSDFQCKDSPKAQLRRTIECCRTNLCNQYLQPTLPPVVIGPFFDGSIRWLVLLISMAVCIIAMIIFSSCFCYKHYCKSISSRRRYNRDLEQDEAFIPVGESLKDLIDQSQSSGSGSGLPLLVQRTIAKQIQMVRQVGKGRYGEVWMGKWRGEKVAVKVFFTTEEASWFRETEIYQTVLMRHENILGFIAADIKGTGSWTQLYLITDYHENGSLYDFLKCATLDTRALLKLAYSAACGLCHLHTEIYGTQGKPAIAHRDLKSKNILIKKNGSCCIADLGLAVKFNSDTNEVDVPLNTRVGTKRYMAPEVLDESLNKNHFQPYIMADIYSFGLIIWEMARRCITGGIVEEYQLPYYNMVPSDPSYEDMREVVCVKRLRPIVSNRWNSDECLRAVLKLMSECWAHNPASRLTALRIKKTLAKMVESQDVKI

[4] = target: T2, ALK5/TGFBR1 (Homo sapiens, UniProt P36897); experiment: BMP Type 1 receptor assay, ALK5/TGFBR1; format: biochemical
T2 sequence (P36897 34-503): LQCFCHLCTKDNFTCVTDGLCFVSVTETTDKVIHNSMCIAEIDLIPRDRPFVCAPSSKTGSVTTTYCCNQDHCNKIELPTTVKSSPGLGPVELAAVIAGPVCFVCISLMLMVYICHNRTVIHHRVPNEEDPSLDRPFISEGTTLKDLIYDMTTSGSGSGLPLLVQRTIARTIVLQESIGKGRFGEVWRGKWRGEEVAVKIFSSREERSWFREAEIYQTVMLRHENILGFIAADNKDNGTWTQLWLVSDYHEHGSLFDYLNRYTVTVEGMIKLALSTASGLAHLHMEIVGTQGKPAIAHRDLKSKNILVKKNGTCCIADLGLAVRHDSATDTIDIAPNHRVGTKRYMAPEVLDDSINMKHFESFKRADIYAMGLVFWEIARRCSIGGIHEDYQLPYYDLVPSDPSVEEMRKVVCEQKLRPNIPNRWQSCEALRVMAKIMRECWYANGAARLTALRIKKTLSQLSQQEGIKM

[5] = target: ALK6/BMPR1B (Homo sapiens, UniProt O00238); experiment: BMP Type 1 receptor assay, ALK6/BMPR1B; format: biochemical
ALK6/BMPR1B, sequence (O00238 14-502): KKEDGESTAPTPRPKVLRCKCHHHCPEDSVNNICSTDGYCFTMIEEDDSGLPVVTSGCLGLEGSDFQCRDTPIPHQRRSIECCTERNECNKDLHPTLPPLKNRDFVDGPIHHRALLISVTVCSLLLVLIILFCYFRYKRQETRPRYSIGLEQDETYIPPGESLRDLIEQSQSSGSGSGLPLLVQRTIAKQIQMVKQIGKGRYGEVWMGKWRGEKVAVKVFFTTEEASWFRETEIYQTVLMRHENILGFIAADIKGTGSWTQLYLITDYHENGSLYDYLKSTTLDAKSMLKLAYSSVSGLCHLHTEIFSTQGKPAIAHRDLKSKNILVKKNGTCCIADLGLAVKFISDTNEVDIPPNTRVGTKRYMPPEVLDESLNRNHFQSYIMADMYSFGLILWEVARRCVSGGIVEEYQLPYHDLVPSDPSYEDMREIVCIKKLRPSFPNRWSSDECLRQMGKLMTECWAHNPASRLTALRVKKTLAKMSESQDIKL

[6] = test system: BMP4; experiment: BMP4 cell assay (BMP reporter); format: cell-based; conditions: Table 2

SMILES | IC50 [1] [nM] | IC50 [3] [nM] | IC50 [4] [nM] | further results
c1ccc(-c2cnc3cc(-c4ccc(OCCN5CCOCC5)cc4)ccn23)cc1 [Entry 30, 4-(2-(4-(3-phenylimidazo[1,2-a]pyridin-7-yl)phenoxy)ethyl)morpholine] | 645 |  | > 100000 | 
c1ccc2c(-c3cnc4cc(-c5ccc6c(c5)OCCO6)ccn34)ccnc2c1 [drawing 207] |  |  |  | IC50 [6]: 2890 nM
Cc1cc(-c2cnc3cc(-c4ccc(N5CCN(C)CC5)cc4)ccn23)ccn1 [Entry 67, 7-(4-(4-methylpiperazin-1-yl)phenyl)-3-(2-methylpyridin-4-yl)imidazo[1,2-a]pyridine] | 20 |  |  | 
CN1CCN(c2ccc(-c3ccn4c(-c5ccncc5)cnc4c3)cc2)CC1 [Entry 66, 7-(4-(4-methylpiperazin-1-yl)phenyl)-3-(pyridin4-yl)imidazo[1,2-a]pyridine] | 46 |  |  | 
c1ccc2c(-c3cnc4cc(-c5ccc(OCCN6CCOCC6)cc5)ccn34)ccnc2c1 [Example 1, 4-(2-(4-(3-(quinolin-4-yl)imidazo[1,2-a]pyridin-7-yl)phenoxy)ethyl)morpholine] |  |  |  | IC50 [6]: 62 nM
CN1CCN(c2ccc(-c3ccn4c(-c5ccnc6ccccc56)cnc4c3)cc2)CC1 [Entry 21, 4-(7-(4-(4-methylpiperazin-1-yl)phenyl)imidazo[1,2-a]pyridin-3-yl)quinoline] |  | 7.9 | 3960 | IC50 [5]: 11 nM
CN1CCN(c2ccc(-c3ccn4c(-c5ccnc6ccsc56)cnc4c3)cc2)CC1 [Entry 62, 7-(7-(4-(4-methylpiperazin-1-yl)phenyl)imidazo[1,2-a]pyridin-3-yl) thieno[3,2-b]pyridine] |  | 50.8 |  | 
CC(C)Oc1ccc(-c2cc3ncc(-c4ccnc5ccccc45)n3cn2)cc1 |  |  |  | IC50 [6]: 8100 nM
Cc1cc(-c2cnc3cc(-c4ccc(N5CCN(C)CC5)cc4)ccn23)c2ccccc2n1 [Entry 51, 2-methyl-4-(7-(4-(4-methylpiperazin-1-yl)phenyl)imidazo[1,2-a]pyridin-3-yl)quinoline] | 26.5 |  |  | 
CN1CCN(c2ccc(-c3ccn4c(-c5csc6nccnc56)cnc4c3)cc2)CC1 [Entry 60, 7-(7-(4-(4-methylpiperazin-1-yl)phenyl)imidazo[1,2-a]pyridin-3-yl)thieno [2,3-b]pyrazine] |  | 40.1 |  | 
c1ccc2c(-c3cnc4cc(-c5ccc6c(c5)OCCO6)ccn34)ccnc2c1 [Entry 5, 4-(7-(2,3-dihydrobenzo[b][1,4]dioxin-6-yl)imidazo[1,2-a]pyridin-3-yl)quinoline] | 270 |  |  | 

More lines, main results first:

IC50 [1] [nM] | IC50 [3] [nM] | IC50 [4] [nM] | SMILES | further results
155 | 118 | 13600 | CC(C)Oc1ccc(-c2ccn3c(-c4ccnc(Cl)c4)cnc3c2)cc1 [Entry 25, 3-(2-chloropyridin-4-yl)-7-(4-isopropoxyphenyl)imidazo[1,2-a]pyridine] | IC50 [2]: 87 nM; IC50 [5]: 340 nM
149 |  | 3490 | Cc1cc(-c2cnc3cc(-c4ccc(OC(C)C)cc4)ccn23)ccn1 [Entry 45, 7-(4-isopropoxyphenyl)-3-(2-methylpyridin-4-yl)imidazo[1,2-a]pyridine] | 
1970 | 92 | > 100000 | CC(C)Oc1ccc(-c2ccn3c(-c4cn[nH]c4)cnc3c2)cc1 [Entry 42, 7-(4-isopropoxyphenyl)-3-(1H-pyrazol-4-yl)imidazo[1,2-a]pyridine] | IC50 [2]: 494 nM; IC50 [5]: 895 nM
265 |  | > 100000 | CC(C)Oc1ccc(-c2ccn3c(-c4ccnc(F)c4)cnc3c2)cc1 [Entry 26, 3-(2-fluoropyridin-4-yl)-7-(4-isopropoxyphenyl)imidazo[1,2-a]pyridine] | 
